Patent US9018234B2, “Fluoro-substituted 2-aryl-3,5-dicyano-4-indazolyl-6-methyl-1,4-dihydropyridines and uses thereof” (Bayer Intellectual Property GmbH, priority 2009, dated 2015)

Assay: Caco-2 permeability assay
Assay type: in vitro ADME
Conditions: human, apical to basolateral, 2 μM test concentration, 2 h at 37° C., read-out: Caco-2 permeability PappA-B
Description: Caco-2 Permeability Assay:
The in vitro permeation of a test compound across a Caco-2 cell monolayer is a well-established assay system to predict the permeability from the gastro-intestinal tract [cf. P. Artursson and J. Karlsson: Correlation between oral drug absorption in humans and apparent drug permeability coefficients in human intestinal epithelial (Caco-2) cells, Biochem. Biophys. 175 (3), 880-885 (1991)]. The permeability of the compounds of the present invention in such Caco-2 cells was determined as described below:
Human Caco-2 cells (ACC No. 169, DSMZ, German Collection of Microorganisms and Cell Cultures, Braunschweig, Germany) are seeded on 24-well insert plates and are allowed to grow for 14-16 days. For permeability studies, the test compounds are dissolved in DMSO and diluted to the final test concentration of 2 μM with transport buffer [Hanks' Buffered Salt Solution, Gibco/Invitrogen, further supplemented with glucose (final concentration 19.9 mM) and HEPES (final concentration 9.8 mM)]. For determination of the apical to basolateral permeability (PappA-B), the test compound solution is added to the apical side of the cell monolayer and transport buffer to the basolateral side of the monolayer; for determination of the basolateral to apical permeability (PappB-A), the test compound solution is added to the basolateral side of the cell monolayer and transport buffer to the apical side of the monolayer. Samples are taken from the donor compartment at the beginning of the experiment to confirm mass balance. After an incubation of 2 h at 37° C., samples are taken from both compartments. Samples are analyzed by LC-MS/MS, and the apparent permeability coefficients are calculated. Lucifer Yellow permeability is assayed for each cell monolayer to ensure cell monolayer integrity, and the permeability of Atenolol (low permeability marker) and Sulfasalazine (marker for active excretion) is determined for each batch as quality control.
Representative results from this assay are listed in Table 2 below together with corresponding data for two structural analogs having an unsubstituted methyl group in 6-position of the 1,4-dihydropyridine ring (comparative Examples A and B, see experimental section above; disclosed generically in WO 2008/071451-A1): […]

Papp at 2 h, 2 μM [×10⁻⁶ cm/s] | Compound
9.9 | COc1ccc(C2=C(C#N)C(c3ccc4[nH]nc(C)c4c3)C(C#N)=C(C)N2)cc1 (racemic) [Example A, 2-(4-Methoxyphenyl)-6-methyl-4-(3-methyl-1H-indazol-5-yl)-1,4-dihydropyridine-3,5-dicarbonitrile, reference compound]
6.2 | CC1=C(C#N)C(c2ccc3[nH]nc(C)c3c2)C(C#N)=C(c2ccc(F)cc2)N1 (racemic) [Example B, 2-(4-Fluorophenyl)-6-methyl-4-(3-methyl-1H-indazol-5-yl)-1,4-dihydropyridine-3,5-dicarbonitrile, reference compound]

Second part, the compound before the results:

Compound | Papp at 2 h, 2 μM [×10⁻⁶ cm/s]
Cc1n[nH]c2ccc(C3C(C#N)=C(c4ccc(F)cc4)NC(C(F)F)=C3C#N)cc12 (racemic) [Example 6] | 15
Cc1n[nH]c2ccc(C3C(C#N)=C(c4ccc(F)cc4)NC(C(F)(F)F)=C3C#N)cc12 (racemic) [Example 13] | 15.8
COc1ccc(C2=C(C#N)C(c3ccc4[nH]nc(C)c4c3)C(C#N)=C(C(F)F)N2)cc1 (centres unmarked) [Example 8] | 17
